Measurements taken from publication PMC8986850, “Development and exploration of novel substituted thiosemicarbazones as inhibitors of aldose reductase via in vitro analysis and computational study” (Scientific Reports, 2022).

How the values were obtained:
[1] = target: T1, ALR2 (Bos taurus, UniProt P16116); assay: ALR2 enzyme inhibition assay (enzyme extracted from calf lenses); type: biochemical, bovine; details: for inhibition at 100 µM: bovine lens ALR2, 100 µM inhibitor, read-out: I (%, 100 µM) (ALR2) (converted); for IC50: bovine lens ALR2, substrate DL-glyceraldehyde, mean ± SEM of three measurements
T1 construct: from tissue; host or cells: calf eye lenses
Protocol: Compounds 3a-o were tested against ALR2 to evaluate their inhibitory potential against aldose reductase whereas selectivity was determined via performing ALR1 inhibition assay. For the enzyme inhibition assay, ALR2 and ALR1 were extracted from bovine sources (ALR2 from eyes and ALR1 from kidneys). Moreover, inhibitions studies were also carried out on the expressed ALR2 (human AKR1B1) and inhibition data for ALR2- bovine source and expressed enzyme was compared and analyzed. The protocols for enzyme extraction and expression in the bacterial system are included in the section of “Supporting information”. […] For the purpose of comparison and validation of enzyme inhibition data, these compounds were tested against human AKR1B1 (hAKR1B1) expressed in E. coli BL21 (DE3).
(§1) For the determination of enzyme activity of ALR1 and ALR2, 100 µL of reaction mixture was composed of 20 µL of buffer (100 mM sodium phosphate, pH 6.2), 30 µL of enzyme extract, 20 µL of substrate (10 mM), 20 µL of cofactor (0.1 mM of NADPH) and 10 µL of test compound (1 mM)[6],[21]. The reaction mixture without cofactor was incubated at 32°C for 10 min, then the enzymatic reaction was initiated with the addition of NADPH and monitored for 5 minutes. Similar protocols were followed for ALR1 and ALR2, however the substrate was different for each enzyme, with sodium-D-glucoronate and DL-glyceraldehyde used as the substrates for the ALR1 and ALR2 assays, respectively. […] In addition, similar protocols were adopted for human AKR1B1 that was expressed in E. coli BL21 (DE3), though the determined protein concentration was 12 µg/mL for the expressed enzyme. Detailed protocols for the preparation of ALR1, ALR2 and expressed human AKR1B1 can be found in the supporting information.
(§2) The newly synthesized N-substitute thiosemicarbazones (3a-o) were dissolved in 100% DMSO and diluted with deionized water, keeping the DMSO concentration equal to 0.1% in the assay.
The extraction of ALR2 was carried out from calf lenses via adopting method described in
in (Hayman and Kinoshita 1965) with little modification. The lenses were obtained from slaughterhouse immediately after calf’s slaughtering and stored at -20^◦C until further use. These lense (150-170g) were subjected to homogenization with about three times volume of cold distilled water and then centrifugation was carried out for the homogenate at 10,000 x g for 14 minutes for removal of insoluble lipids particles. Precipitates were discarded and supernatant layer was subjected to 40% saturation of ammonium sulphate and again centrifugation was performed with same parameters for 14 minutes and again precipitates were discarded. […] In the last step, the supernatant was subjected to 75% of saturation with ammonium sulphate to obtain ALR2. Now, the precipitates were collected instead supernatant because precipitated protein was the expected desired ALR2. The precipitated enzyme (ALR2) was redissolved in 50mM solution of sodium chloride and dialyzed for 24 hours against 50mM solution (3.5L) of NaCl. The volume was recorded before and after dialysis, then dialyzed material was treated with liquid nitrogen. The extracted ALR2 was stored in 1mL Eppendorf tube in deep freezer at -80 ^◦C till further enzymatic studies.

[2] = target: T2, human AKR1B1 (hAKR1B1) (Homo sapiens, UniProt P15121); assay: Inhibition of expressed human AKR1B1 (E. coli BL21 (DE3)); type: biochemical; details: for inhibition at 100 µM: human AKR1B1 expressed in E. coli, 100 µM inhibitor, read-out: I (%, 100 µM) (AKR1B1); for IC50: human AKR1B1 expressed in E. coli BL21 (DE3), mean ± SEM of three measurements
T2 construct: made in house; host or cells: E. coli BL21 (DE3)
Protocol: For the enzyme inhibition assay, ALR2 and ALR1 were extracted from bovine sources (ALR2 from eyes and ALR1 from kidneys). Moreover, inhibitions studies were also carried out on the expressed ALR2 (human AKR1B1) and inhibition data for ALR2- bovine source and expressed enzyme was compared and analyzed. The protocols for enzyme extraction and expression in the bacterial system are included in the section of “Supporting information”. […] For the purpose of comparison and validation of enzyme inhibition data, these compounds were tested against human AKR1B1 (hAKR1B1) expressed in E. coli BL21 (DE3).
as §1, with “The reaction mixture without cofactor was incubated at 32°C for 10 min, then the enzymatic reaction was initiated with the addition of NADPH and monitored for 5 minutes.” left out
as §2
The expression plasmid for aldose reductase (pDONR223_AKR1B1_WT) was gift from Addgene in stable culture. Streaking of this culture has been carried out on LB Agar plate then incubated overnight, after growth of colonies , inoculation was performed in LB medium then incubated this medium in shaking incubator at 37 °C. After 48 hours turbidity was measured when OD=0.6 then some of bacterial growth was prepared as 50% glycerol stock. Others are subjected to plasmid isolation following method Miniprep. Meanwhile E. Coli BL21 De3 cells were made competent then transformation with extracted plasmid (AKR1B1) had been carried out heat shock method. Transformed cell ( E.Coli BL21 DE3+AKR1B1) were grown in 37 °C in shaking incubator for 48 hr. The selection for transformed cells was carried out with the help of antibiotic (spectinomycin 50µg/ml). […] For the expression of aldose reductase , E.coli BL21DE3 were induced with of IPTG(Isopropyl-d-thiogalactopyranoside)[3]. […] The expressed enzyme was stabilized by addition 10 mM Tris–HCl buffer, 0.5 mM EDTA, 5 mM β-marcaptoethanol at pH 8.0 and 20% (v/v) glycerol. Cells were lysed with lysis buffer and then precipitation with ammonium sulfate up to 80% saturation was done . the expressed enzyme was dialyzed overnight against tris buffer. Protein quantification was performed following Bradford protein assay. Aliqoutes were stored at -80 refrigerator.

[3] = DPPH radical scavenging activity; details: 100 µM compound, methanolic DPPH 0.025 mg/mL, 517 nm
Protocol: DPPH (2,2-diphenyl-1-picrylhydrazyl) was used to explore the free radical quenching ability of 3a-o so as to provide a gauge of their antioxidant potential. The experiment was conducted according to a previously reported protocol with slight modifications. Percent free radical scavenging activities (% FRSA) of 3a-o were determined by spectrophotometric analysis at 517 nm using a homogenous mixture of methanolic DPPH (0.025 mg/mL) and a 100 µM solution of the tested compound, with ascorbic acid used as a positive control (Fig. 3).

[4] = target: T3, ALR1 (Bos taurus, UniProt Q3ZCJ2); assay: ALR1 enzyme inhibition assay (enzyme extracted from calf kidneys); type: biochemical, bovine; details: for IC50: bovine kidney ALR1, substrate sodium-D-glucoronate, mean ± SEM of three measurements; for inhibition at 100 µM: bovine kidney ALR1, 100 µM inhibitor, read-out: I (%, 100 µM) (ALR1)
T3 construct: The calf’s kidneys were obtained after slaughtering and dissection; from tissue; host or cells: calf kidneys
T3 sequence (Q3ZCJ2 whole entry): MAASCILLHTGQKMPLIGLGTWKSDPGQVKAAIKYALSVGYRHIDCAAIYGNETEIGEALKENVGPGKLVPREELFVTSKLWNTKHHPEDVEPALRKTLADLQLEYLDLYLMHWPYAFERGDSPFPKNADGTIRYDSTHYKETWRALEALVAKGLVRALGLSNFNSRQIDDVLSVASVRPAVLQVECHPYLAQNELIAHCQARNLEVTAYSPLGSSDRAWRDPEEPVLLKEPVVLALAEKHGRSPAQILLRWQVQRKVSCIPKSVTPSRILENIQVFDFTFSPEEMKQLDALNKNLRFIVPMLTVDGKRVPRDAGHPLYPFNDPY
Protocol: Compounds 3a-o were tested against ALR2 to evaluate their inhibitory potential against aldose reductase whereas selectivity was determined via performing ALR1 inhibition assay. For the enzyme inhibition assay, ALR2 and ALR1 were extracted from bovine sources (ALR2 from eyes and ALR1 from kidneys). Moreover, inhibitions studies were also carried out on the expressed ALR2 (human AKR1B1) and inhibition data for ALR2- bovine source and expressed enzyme was compared and analyzed. The protocols for enzyme extraction and expression in the bacterial system are included in the section of “Supporting information”. […] For the purpose of comparison and validation of enzyme inhibition data, these compounds were tested against human AKR1B1 (hAKR1B1) expressed in E. coli BL21 (DE3). We found a similar pattern of enzyme inhibition for the synthesized compounds against extracted enzyme (ALR2) as well as expressed enzyme (hAKR1B1).
as §1, §2
The calf’s kidneys were obtained after slaughtering and dissection, dissolved in 3 volumes of sodium phosphate buffer (10mM) which is composed of 2.0 mM EDTA, 2.5mM β-mercaptoethanol, 0.25M solution of sucrose at pH 7.25. First, the homogenisation was carried out then centrifugation of the homogenate was performed at 12000 x g at 0-2^◦C for 30 minutes. The precipitates containing insoluble lipids were discarded and the collected supernatant layer was treated with 40% saturation of ammonium sulphate. This liquid mixture was subjected to centrifugation at 11000 x g at 0-2^◦C for 30 minutes. Now, precipitates were again discarded and supernatant was collected and treated with 50% ammonium sulphate and procedure was repeated in the same manner as in previous step. In the last step, the saturation of ammonium sulphate was increased up to 75% and supernatant was subjected to same parameter of centrifugation. At this final step, precipitates were obtained and supernatant layer was discarded. The obtained material of precipitates was composed of ALR1and redissolved in initial buffer that was used during homogenisation. Finally, material was dialyzed overnight with same buffer system. The dialyzed fractions containing ALR1 were stored at -80^◦C for further use[5].

inhibition at 100 µM [1]	inhibition at 100 µM [2]	melting point	IC50 [1]	IC50 [2]	IC50 [4]	inhibition at 100 µM [4]	Compound	% FRSA (percent free radical scavenging activity) [3]
≤ 39.1%	22.3%	184 to 186 °C	–	–	–	–	CC(C)(C)c1cc(C=NNC(=S)Nc2ccc(Br)cc2)c(O)c(C(C)(C)C)c1 [Compound 3i, N-(4-bromophenyl)-2-(3,5-di-tert-butyl-2-hydroxybenzylidene)hydrazine carbothioamide]	81.80%
–	–	173 to 175 °C	4490 ± 3.4 nM	3.27 ± 0.0035 µM	4.21 ± 0.0021 µM	–	COc1cccc(NC(=S)NN=Cc2cc(C(C)(C)C)cc(C(C)(C)C)c2O)c1 [Compound 3c, 2-(3,5-di-tert-butyl-2-hydroxybenzylidene)-N-(3-methoxyphenyl)hydrazine carbothioamide]	85.16%
≤ 44.6%	27.4%	186 to 188 °C	–	–	–	≤ 31.6%	Cc1ccc(NC(=S)NN=Cc2cc(C(C)(C)C)cc(C(C)(C)C)c2O)c(C)c1 [Compound 3b, 2-(3,5-di-tert-butyl-2-hydroxybenzylidene)-N-(2,4-dimethylphenyl)hydrazine carbothioamide]	84.05%
≤ 39.1%	38%	168 to 170 °C	–	–	–	–	CC(C)(C)c1cc(C=NNC(=S)NC2CCCCC2)c(O)c(C(C)(C)C)c1 [Compound 3h, N-cyclohexyl-2-(3,5-di-tert-butyl-2-hydroxybenzylidene)hydrazinecarbothioamide]	83.54%
≤ 39.1%	22.6%	189 to 191 °C	–	–	–	–	CC(C)c1ccc(NC(=S)NN=Cc2cc(C(C)(C)C)cc(C(C)(C)C)c2O)cc1 [Compound 3n, 2-(3,5-di-tert-butyl-2-hydroxybenzylidene)-N-(4-isopropylphenyl)hydrazine carbothioamide]	7.91%
–	3.56%	182 to 184 °C	–	–	–	–	Cc1ccccc1NC(=S)NN=Cc1cc(C(C)(C)C)cc(C(C)(C)C)c1O [Compound 3d, 2-(3,5-di-tert-butyl-2-hydroxybenzylidene)-N-(o-tolyl)hydrazinecarbothioamide]	84.58%
–	–	176 to 178 °C	2380 ± 2.8 nM	3.95 ± 0.0038 µM	–	–	CC(C)(C)c1cc(C=NNC(=S)Nc2ccc(F)cc2)c(O)c(C(C)(C)C)c1 [Compound 3g, 2-(3,5-di-tert-butyl-2-hydroxybenzylidene)-N-(4-fluorophenyl)hydrazine carbothioamide]	85.89%
≤ 44.6%	41.2%	186 to 188 °C	–	–	–	≤ 31.6%	Cc1ccc(NC(=S)NN=Cc2cc(C(C)(C)C)cc(C(C)(C)C)c2O)cc1 [Compound 3k, 2-(3,5-di-tert-butyl-2-hydroxybenzylidene)-N-(p-tolyl)hydrazinecarbothioamide]	86.60%
–	12.3%	190 to 192 °C	–	–	–	–	CC(C)(C)c1cc(C=NNC(=S)NCc2ccccc2)c(O)c(C(C)(C)C)c1 [Compound 3e, N-benzyl-2-(3,5-di-tert-butyl-2-hydroxybenzylidene)hydrazinecarbothioamide]	83.20%
81.5%	–	188 to 190 °C	1460 ± 5 nM	1.65 ± 0.004 µM	–	–	CC(C)(C)c1cc(C=NNC(=S)Nc2ccc(Cl)cc2)c(O)c(C(C)(C)C)c1 [Compound 3l, N-(4-chlorophenyl)-2-(3,5-di-tert-butyl-2-hydroxybenzylidene)hydrazine carbothioamide]	61.55%
–	–	–	–	–	–	–	O=C1O[C@H]([C@@H](O)CO)C(O)=C1O [Ascorbic acid, reference compound]	89.88%
–	–	–	–	–	49.31 ± 0.005 µM	–	CCCC(CCC)C(=O)O [Valproic acid, reference compound]	–
